Results: ChEMBL document CHEMBL1201862, “PubChem BioAssay data set” (2004)
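1) Cells in 96-well plates. 2) Compound, 48 h, 5 concentrations. 3) Linear interpolation between surrounding doses. 4) Unreached endpoint = highest concentration. GI50: concentration for 50% inhibition of growth.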 The source made the active and inactive calls. Cut-off read from the data, not from the text of the source: active = GI50 up to about 1.1 µM and inactive = higher.

Key:
Assay in all cases: NCI anticancer screen, dose series, 48 h
SK-MEL-28 = system: SK-MEL-28
786-0 = system: 786-0
Malme-3M = system: Malme-3M
RPMI-8226 = system: RPMI-8226
M14 = system: M14
K562 = system: K562
NCI-H460 = system: NCI-H460
OVCAR-5 = system: OVCAR-5
T47D = system: T47D
SNB-19 = system: SNB-19
A498 = system: A498
SF-539 = system: SF-539
MCF7 = system: MCF7
NCI-H23 = system: NCI-H23
HL-60 = system: HL-60
OVCAR-8 = system: OVCAR-8
Hs-578T = system: Hs-578T
SNB-75 = system: SNB-75
LOX IMVI = system: LOX IMVI
DU-145 = system: DU-145
TK-10 = system: TK-10
SK-OV-3 = system: SK-OV-3
MDA-N = system: MDA-N
SK-MEL-2 = system: SK-MEL-2
UACC-62 = system: UACC-62
SN12C = system: SN12C
MOLT-4 = system: MOLT-4
UO-31 = system: UO-31
HT-29 = system: HT-29
NCI/ADR-RES = system: NCI/ADR-RES
CCRF-CEM = system: CCRF-CEM
UACC-257 = system: UACC-257
SF-295 = system: SF-295
A549 = system: A549
U-251 = system: U-251
SF-268 = system: SF-268
HOP-92 = system: HOP-92
HCT-15 = system: HCT-15
SW-620 = system: SW-620
ACHN = system: ACHN
EKVX = system: EKVX
IGROV-1 = system: IGROV-1
MDA-MB-435 = system: MDA-MB-435
COLO 205 = system: COLO 205
HOP-62 = system: HOP-62
OVCAR-3 = system: OVCAR-3
RXF 393 = system: RXF 393
HCC 2998 = system: HCC 2998
MDA-MB-231 = system: MDA-MB-231
BT-549 = system: BT-549
PC-3 = system: PC-3
NCI-H522 = system: NCI-H522
HCT-116 = system: HCT-116
CAKI-1 = system: CAKI-1
OVCAR-4 = system: OVCAR-4
SK-MEL-5 = system: SK-MEL-5
KM12 = system: KM12

Nc1ncnc2c1ccn2C/C=C\CO
GI50 (SK-MEL-28): > 100 µM (inactive) | GI50 (786-0): > 100 µM (inactive) | GI50 (Malme-3M): > 100 µM (inactive) | GI50 (RPMI-8226): > 100 µM (inactive) | GI50 (M14): > 100 µM (inactive) | GI50 (K562): > 100 µM (inactive) | GI50 (NCI-H460): > 100 µM (inactive) | GI50 (OVCAR-5): > 100 µM (inactive) | GI50 (T47D): > 100 µM (inactive) | GI50 (SNB-19): > 100 µM (inactive) | GI50 (A498): > 100 µM (inactive) | GI50 (SF-539): > 100 µM (inactive) | GI50 (MCF7): > 100 µM (inactive) | GI50 (NCI-H23): > 100 µM (inactive) | GI50 (HL-60): > 100 µM (inactive) | GI50 (OVCAR-8): > 100 µM (inactive) | GI50 (Hs-578T): > 100 µM (inactive) | GI50 (SNB-75): > 100 µM (inactive) | GI50 (LOX IMVI): > 100 µM (inactive) | GI50 (DU-145): > 100 µM (inactive) | GI50 (TK-10): > 100 µM (inactive) | GI50 (SK-OV-3): > 100 µM (inactive) | GI50 (MDA-N): > 100 µM (inactive) | GI50 (SK-MEL-2): > 100 µM (inactive) | GI50 (UACC-62): > 100 µM (inactive) | GI50 (SN12C): > 100 µM (inactive) | GI50 (MOLT-4): 85.9 µM (inactive) | GI50 (UO-31): > 100 µM (inactive) | GI50 (HT-29): > 100 µM (inactive) | GI50 (NCI/ADR-RES): > 100 µM (inactive) | GI50 (CCRF-CEM): > 100 µM (inactive) | GI50 (UACC-257): > 100 µM (inactive) | GI50 (SF-295): > 100 µM (inactive) | GI50 (A549): > 100 µM (inactive) | GI50 (U-251): > 100 µM (inactive) | GI50 (SF-268): > 100 µM (inactive) | GI50 (HOP-92): > 100 µM (inactive) | GI50 (HCT-15): > 100 µM | GI50 (SW-620): > 100 µM (inactive) | GI50 (ACHN): > 100 µM (inactive) | GI50 (EKVX): > 100 µM (inactive) | GI50 (IGROV-1): > 100 µM (inactive) | GI50 (MDA-MB-435): > 100 µM (inactive) | GI50 (COLO 205): > 100 µM (inactive) | GI50 (HOP-62): > 100 µM (inactive) | GI50 (OVCAR-3): > 100 µM (inactive) | GI50 (RXF 393): > 100 µM (inactive) | GI50 (HCC 2998): > 100 µM (inactive) | GI50 (MDA-MB-231): > 100 µM (inactive) | GI50 (BT-549): > 100 µM (inactive) | GI50 (PC-3): > 100 µM (inactive) | GI50 (NCI-H522): 84.7 µM (inactive) | GI50 (HCT-116): > 100 µM (inactive) | GI50 (CAKI-1): > 100 µM (inactive) | GI50 (OVCAR-4): > 100 µM (inactive) | GI50 (SK-MEL-5): > 100 µM (inactive) | GI50 (KM12): > 100 µM (inactive)
